Non-standard residues stand in square brackets, D forms with d. Residues, ends and D or L forms follow the SMILES beside them. *: point of attachment. X1 = CN(C)c1ccc2c(c1)Oc1cc(N(C)C)ccc1C21OC(=O)c2cc(NC(=S)*)ccc21; pT = C[C@@H](OP(=O)(O)O)[C@H](N)C(=O)O; pS = N[C@@H](COP(=O)(O)O)C(=O)O
Columns and labels:
Pin1 PPIase domain = target: T1, Pin1 PPIase domain (Homo sapiens, UniProt Q13526); assay: Fluorescence anisotropy binding of rhodamine-labeled peptides to isolated Pin1 PPIase domain
T1 construct: the PPIase domain includes residues 50–163 of Pin1
T1 sequence (Q13526 50-163): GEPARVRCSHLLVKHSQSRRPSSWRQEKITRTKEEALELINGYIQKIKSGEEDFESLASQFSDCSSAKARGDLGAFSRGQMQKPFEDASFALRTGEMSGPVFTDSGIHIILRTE
Method: Protein purification and crystallography. His8-tagged Pin1 was expressed and purified by Ni^+2-chelation chromatography, the histidine tag was removed by thrombin digestion, and the protein purified as described in Ranganathan et al., Cell 89:875–886, 1997. All site-directed mutants were constructed using the QuikChange (Stratagene) protocol and purified like wild type Pin1. Crystals of the Pin1-YpSPTpSPS complex were grown in hanging drops at 4° C. by mixing 1.0 μl of the Pin1-peptide complex with 1.0 μl of a reservoir solution containing 100 mM MOPSO-Na^+ (pH 7.0), 28% (v/v) PEG 8000, 2 mM DTT, stabilized in 100 mM MOPSO-Na^+ (pH 7.0), 25% (v/v) PEG 8000, 20% (v/v) glycerol, 1 mM DTT, and rapidly frozen in a 100 K stream of nitrogen gas. A native data set extending to 1.84 Å resolution was collected at the Stanford Synchrotron Radiation Laboratory, beamline 9-1 (λ=0.98 Å). Data were processed with DENZO and scaled with […] (Otwinowski, Z., Minor, W. Meth. Enzymol. 276:307–326, 1997). The crystals contain one Pin1-peptide complex per asymmetric unit and belong to space group P212121 (a=35.27 Å, b=43.90 Å, c=124.66 Å, α=β=γ=90°). The final data set with an overall R merge of 6.2% (R merge=33.7% in the highest resolution shell) is 97.3% complete (98.2% in the highest resolution shell) for the resolution range of 62.02 Å to 1.84 Å. The structure of the Pin1-YpSPTpSPS repeat complex was solved by molecular replacement with AMORE (Navaza, J. Acta Crystallogr. A 50:157–163, 1994) using the Pin1 monomer as a starting model (Ranganathan et al., Cell 89:875–886, 1997). The resulting model was then positionally refined against all the data between 62.02 Å and 1.84 Å using the default bulk solvent model in CNS with maximum likelihood targets (Brunger et al., Acta Crystallogr. D 54:905–921, 1998). After refining the rebuilt model, water molecules were added automatically using CNS and edited manually in O. The final positional refinement converged to a crystallographic R factor of 24% (R free=27%) for all data (17107 reflections) between 62.02 Å and 1.84 Å. This model consists of residues 1 to 38 and 51 to 163 of human Pin1, the entire phosphopeptide, and 151 water molecules. Model quality was checked with PROCHECK (Laskowski et al., J. Appl. Crystallogr. 26:283–291, 1993). A total of 91.7% of the residues are in the most favored regions of the Ramachandran plot, 6.8% in the additional allowed region, and 0.8% in the generously allowed region. Glu-5 borders the generously allowed region.
Binding Analysis. […] These peptides were derived from proteins previously shown to interact with Pin1. While the set of peptides examined is limited, a consensus emerges from comparison of the highest affinity interactions. Lyophilized peptides were dissolved in 25 mM HEPES-Na^+ (pH 7.5), 100 mM NaCl, 1 mM DTT and stored for short periods of time at −20° C. […] Fluorescence data were collected on a PTI Alphascan spectrofluorimeter (Photon Technology Instruments, Santa Clara, Calif.). Dissociation equilibrium constants for Pin1-peptide complexes were determined by measuring the change in fluorescence anisotropy of a set of peptide solutions at constant concentration of peptide each of which contained varied concentrations of Pin1 using the procedure described previously (Vinson et al., Biochemistry 37:10871–10880, 1998). The core binding element determined from this group of peptides is PXpSP, where X cannot be Gly. […]

Pin1 WW domain = target: T2, Pin1 WW domain (Homo sapiens, UniProt Q13526); assay: Fluorescence anisotropy binding of rhodamine-labeled peptides to isolated Pin1 WW domain
T2 construct: The WW domain of Pin1 includes residues 1 to 39
T2 sequence (Q13526 1-39 limits assumed): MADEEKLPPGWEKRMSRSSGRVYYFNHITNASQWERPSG
Method: (§1) Protein purification and crystallography. His8-tagged Pin1 was expressed and purified by Ni^+2-chelation chromatography, the histidine tag was removed by thrombin digestion, and the protein purified as described in Ranganathan et al., Cell 89:875–886, 1997. All site-directed mutants were constructed using the QuikChange (Stratagene) protocol and purified like wild type Pin1. Crystals of the Pin1-YpSPTpSPS complex were grown in hanging drops at 4° C. by mixing 1.0 μl of the Pin1-peptide complex with 1.0 μl of a reservoir solution containing 100 mM MOPSO-Na^+ (pH 7.0), 28% (v/v) PEG 8000, 2 mM DTT, stabilized in 100 mM MOPSO-Na^+ (pH 7.0), 25% (v/v) PEG 8000, 20% (v/v) glycerol, 1 mM DTT, and rapidly frozen in a 100 K stream of nitrogen gas. […]
(§2) Binding Analysis. […] Fluorescence data were collected on a PTI Alphascan spectrofluorimeter (Photon Technology Instruments, Santa Clara, Calif.). Dissociation equilibrium constants for Pin1-peptide complexes were determined by measuring the change in fluorescence anisotropy of a set of peptide solutions at constant concentration of peptide each of which contained varied concentrations of Pin1 using the procedure described previously (Vinson et al., Biochemistry 37:10871–10880, 1998). The core binding element determined from this group of peptides is PXpSP, where X cannot be Gly. […]

Pin1 = target: T3, Pin1 (Homo sapiens, UniProt Q13526); assay: Fluorescence anisotropy binding of rhodamine-labeled peptides to full length Pin1; settings: errors are deviations from theoretical binding isotherms
T3 construct: His8 (cleaved yes); made in house; host or cells: E. coli
T3 sequence (Q13526 whole entry): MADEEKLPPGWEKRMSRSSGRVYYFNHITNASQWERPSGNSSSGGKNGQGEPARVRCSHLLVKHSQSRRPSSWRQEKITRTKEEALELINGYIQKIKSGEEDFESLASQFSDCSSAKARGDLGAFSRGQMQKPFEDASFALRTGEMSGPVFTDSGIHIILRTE
Method: as §1, §2

Dissociation equilibrium constants for Pin1-peptide complexes, PPIase (Pin1 PPIase domain)	Dissociation equilibrium constants for Pin1-peptide complexes, WW (Pin1 WW domain)	Dissociation equilibrium constants for Pin1-peptide complexes, Pin1 (Pin1)	Compound
n.b.	–	–	CN(C)c1ccc2c(c1)Oc1cc(N(C)C)ccc1C21OC(=O)c2cc(NC(=S)N3CCC[C@H]3C(=O)N3CCC[C@H]3C(=O)NCC(=O)N[C@@H](COP(=O)(O)O)C(=O)N3CCC[C@H]3C(=O)N3CCC[C@H]3C(=O)O)ccc21 [PPGpSPP (Myt1-S416), PPGpSPP] (X1-PPG[pS]PP-OH)
n.b.	–	–	C[C@@H](O)[C@H](NC(=O)[C@H](CO)NC(=S)Nc1ccc2c(c1)C(=O)OC21c2ccc(N(C)C)cc2Oc2cc(N(C)C)ccc21)C(=O)N[C@@H](CO)C(=O)N[C@H](C(=O)N1CCC[C@H]1C(=O)N[C@@H](CCCNC(=N)N)C(=O)O)[C@@H](C)OP(=O)(O)O [STSpTPR (Myt1-T455), STSpTPR] (X1-STS[pT]PR-OH)
n.b.	–	–	CC(C)[C@H](NC(=O)[C@@H]1CCCN1C(=O)[C@@H](NC(=O)[C@H](CCCNC(=N)N)NC(=O)[C@@H]1CCCN1C(=O)[C@@H](NC(=S)Nc1ccc2c(c1)C(=O)OC21c2ccc(N(C)C)cc2Oc2cc(N(C)C)ccc21)C(C)C)[C@@H](C)OP(=O)(O)O)C(=O)O [VPRpTPV (Cdc25c-T48), VPRpTPV] (X1-VPR[pT]PV-OH)
n.b.	n.b.	n.b.	YSPTSPS [YSPTSPS (CTD), unphosphorylated heptad repeat of the C-terminal domain of RNA Polymerase II, rhodamine-labeled]

Compound	Dissociation equilibrium constants for Pin1-peptide complexes, PPIase (Pin1 PPIase domain)	Dissociation equilibrium constants for Pin1-peptide complexes, WW (Pin1 WW domain)	Dissociation equilibrium constants for Pin1-peptide complexes, Pin1 (Pin1)
C[C@H](NC(=O)[C@@H]1CCCN1C(=O)[C@@H]1CCCN1C(=S)Nc1ccc2c(c1)C(=O)OC21c2ccc(N(C)C)cc2Oc2cc(N(C)C)ccc21)C(=O)N[C@H](C(=O)N1CCC[C@H]1C(=O)N1CCC[C@H]1C(=O)O)[C@@H](C)OP(=O)(O)O [PPApTPP (Myt1-T412), PPApTPP] (X1-PPA[pT]PP-OH)	n.b.	–	–
